Tests used:
Assay type in all cases: cell-based
JAK3 = target: T1, JAK3 (Homo sapiens, UniProt P52333); experiment: JAK phosphorylation/activation by flow cytometry, pSTAT5 staining in IL-4 stimulated U-937 cells; details: drug 30 min, then IL-4
T1 construct: U-937 cells, histiocytic lymphoma cell line; endogenous in cells; host or cells: U-937 (ATCC CRL-1593.2)
T1 sequence (P52333 1-1124): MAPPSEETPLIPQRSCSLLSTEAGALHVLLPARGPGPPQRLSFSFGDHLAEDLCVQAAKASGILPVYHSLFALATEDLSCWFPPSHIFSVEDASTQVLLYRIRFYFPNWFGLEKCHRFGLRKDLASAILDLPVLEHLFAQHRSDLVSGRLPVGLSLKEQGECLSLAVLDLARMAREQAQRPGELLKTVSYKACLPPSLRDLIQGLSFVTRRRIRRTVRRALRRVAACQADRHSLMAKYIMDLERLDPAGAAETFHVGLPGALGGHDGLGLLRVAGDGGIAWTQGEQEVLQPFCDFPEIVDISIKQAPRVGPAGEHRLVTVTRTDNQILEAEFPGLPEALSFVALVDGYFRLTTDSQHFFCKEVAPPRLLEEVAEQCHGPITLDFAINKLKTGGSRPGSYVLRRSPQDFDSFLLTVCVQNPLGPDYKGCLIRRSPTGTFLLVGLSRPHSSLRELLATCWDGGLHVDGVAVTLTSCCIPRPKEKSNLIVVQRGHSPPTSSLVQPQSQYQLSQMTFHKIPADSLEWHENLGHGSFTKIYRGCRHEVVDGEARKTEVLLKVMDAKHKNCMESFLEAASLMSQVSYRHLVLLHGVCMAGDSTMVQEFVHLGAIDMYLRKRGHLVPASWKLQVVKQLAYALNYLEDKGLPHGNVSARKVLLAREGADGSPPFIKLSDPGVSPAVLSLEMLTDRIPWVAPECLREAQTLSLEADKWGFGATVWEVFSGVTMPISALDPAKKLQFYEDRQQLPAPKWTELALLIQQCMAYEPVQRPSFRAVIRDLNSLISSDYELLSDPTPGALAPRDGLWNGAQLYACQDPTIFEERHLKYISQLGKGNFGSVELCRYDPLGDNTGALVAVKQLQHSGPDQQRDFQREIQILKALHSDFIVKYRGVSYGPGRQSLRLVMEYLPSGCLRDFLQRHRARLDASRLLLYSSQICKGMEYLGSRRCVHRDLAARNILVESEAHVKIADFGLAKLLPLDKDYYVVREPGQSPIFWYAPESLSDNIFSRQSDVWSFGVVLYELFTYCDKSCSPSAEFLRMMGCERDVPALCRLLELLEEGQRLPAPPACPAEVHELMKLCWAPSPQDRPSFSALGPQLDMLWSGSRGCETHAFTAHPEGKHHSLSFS
Protocol: (§1) The protocol used to analyze the effect of compounds of the invention on JAK phosphorylation/activation is adapted from: Krutzik and Nolan, Cytometry Part A 55A:61-70 (2003).
(§2) Briefly, U-937 cells, histiocytic lymphoma cell line; ATCC No. CRL-1593.2, were treated with compounds of the invention or commercial JAK inhibitors. Cells were then stimulated with IL-4, to engage the JAK/STAT signaling pathway. Cells were fixed with formaldehyde to “freeze” the phosphorylation states of intracellular proteins. Cells were next permeabilized, and stained with mAbs directed against the phosphorylated STAT (pSTAT) proteins. The positive shift in fluorescence due to pSTAT staining serves as a surrogate to JAK phosphorylation/activation: no flow cytometric mAbs specific to JAKs exist, so the proximal downstream signaling event, STAT phosphorylation, is measured. A decrease in fluorescence, due to drug incubation prior to IL-4 stimulation, is an indirect indication of JAK inhibition. The following antibodies were used: apSTAT5-PE: monoclonal antibody to the intracellular STAT5a protein phosphorylated at Tyrosine 694; conjugated to the fluorochrome phycoerythrin (PE); BD No. 612567 and apSTAT6-Alex647: monoclonal antibody to the intracellular STAT6 protein phosphorylated at Tyrosine 641; conjugated to the fluorochrome Alexa Fluor 647; BD No. 612601. The detailed protocol is described below:
(§3) Resuspend U-937 cells @ 8×10^5 cells/mL in complete culture medium (RPMI-1640/10% FBS).
(§4) Add 0.5 mL cell suspension to each well of 24-well tissue culture plate.
(§5) Add drug treatment (compounds, controls) for 30 min @ 37° C., 5% CO2.
(§6) Add cytokine/growth factor to stimulate; 15-30 min @ 37° C. (1 μL/0.5 mL cell suspension; IL-4, IL-2, IL-15=20 ng/mL)
(§7) Transfer cells to 5 mL Flow tubes.
(§8) Add 16% Formaldehyde directly to cell culture to obtain final concentration of 1.5% formaldehyde. (47 μL formaldehyde+0.5 mL cell culture)
(§9) Incubate cells in fixative for 15 min @ 37° C., 5% CO2.
(§10) Add 3 mL cold “Staining Media” (PBS/1% BSA) to each tube; centrifuge cells @ 1100 RPM, 3 min. Discard supernatant.
(§11) Resuspend cells with vigorous vortexing in 200 μL ice-cold Methanol.
(§12) Incubate cells on ice, 30 min.
(§13) Wash cells twice in 2 mL “Staining Medium” (centrifuge cells @ 1100 RPM, 3 min). Discard supernatant.
(§14) Add 8 μL of fluorophore-conjugated, phosphoprotein-specific mAbs to cells. Incubate cells at RT, 60 min, in the dark.
(§15) Wash cells with 4 mL Staining Media. Centrifuge cells @ 1100 RPM, 3 min. Discard supernatant.
(§16) Resuspend cells in 350 μL Staining Media.
(§17) Acquire cellular events on BD FACSCalibur cytometer.

JAK1 = target: T2, JAK1 (Homo sapiens, UniProt P23458); experiment: JAK phosphorylation/activation by flow cytometry, pSTAT6 staining in IL-4 stimulated U-937 cells; details: drug 30 min, then IL-4
T2 construct: U-937 cells, histiocytic lymphoma cell line; endogenous in cells; host or cells: U-937 (ATCC CRL-1593.2)
T2 sequence (P23458 whole entry): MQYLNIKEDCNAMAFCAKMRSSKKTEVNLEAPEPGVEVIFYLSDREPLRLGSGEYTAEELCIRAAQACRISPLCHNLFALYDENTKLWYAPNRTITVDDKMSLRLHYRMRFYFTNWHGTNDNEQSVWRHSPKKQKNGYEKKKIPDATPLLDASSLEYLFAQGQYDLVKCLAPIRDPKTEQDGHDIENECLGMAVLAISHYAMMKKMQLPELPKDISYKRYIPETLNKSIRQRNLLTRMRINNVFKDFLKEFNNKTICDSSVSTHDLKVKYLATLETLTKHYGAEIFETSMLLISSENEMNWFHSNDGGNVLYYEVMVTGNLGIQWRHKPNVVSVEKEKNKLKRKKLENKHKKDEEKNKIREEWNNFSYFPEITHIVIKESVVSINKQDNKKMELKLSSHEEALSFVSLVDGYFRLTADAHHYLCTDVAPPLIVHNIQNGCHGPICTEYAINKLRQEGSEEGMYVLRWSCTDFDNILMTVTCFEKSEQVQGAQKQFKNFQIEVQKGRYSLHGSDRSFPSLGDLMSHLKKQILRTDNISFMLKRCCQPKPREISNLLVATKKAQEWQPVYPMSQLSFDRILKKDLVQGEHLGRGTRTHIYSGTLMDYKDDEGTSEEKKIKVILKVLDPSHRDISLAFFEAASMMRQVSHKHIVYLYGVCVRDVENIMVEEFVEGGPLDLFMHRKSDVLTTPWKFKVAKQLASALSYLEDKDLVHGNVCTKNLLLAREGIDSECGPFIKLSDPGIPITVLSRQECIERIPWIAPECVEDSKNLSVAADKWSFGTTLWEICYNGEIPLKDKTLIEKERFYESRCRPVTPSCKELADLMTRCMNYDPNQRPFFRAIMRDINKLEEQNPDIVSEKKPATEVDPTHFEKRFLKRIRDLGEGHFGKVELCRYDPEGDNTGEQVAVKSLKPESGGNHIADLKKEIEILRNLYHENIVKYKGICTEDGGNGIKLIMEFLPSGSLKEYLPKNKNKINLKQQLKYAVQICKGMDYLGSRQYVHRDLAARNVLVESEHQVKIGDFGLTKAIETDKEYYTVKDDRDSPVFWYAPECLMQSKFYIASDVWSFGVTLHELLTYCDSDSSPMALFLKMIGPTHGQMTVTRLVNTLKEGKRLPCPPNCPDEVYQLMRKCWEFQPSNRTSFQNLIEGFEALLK
Protocol: as §1, §2, §3, §4, §5, §6, §7, §8, §9, §10, §11, §12, §13, §14, §15, §16, §17

SYF/c-Src527F cell line = experiment: Cell proliferation assay (MTT assay), GI50; details: Mus musculus, 72 h, 3 days incubation
Protocol: (§18) The GI50s for several of the compounds of the invention are assayed as described herein.
(§19) Cell line and culture media—the human colon tumor cell line HT-29 was obtained from Dr. Irwin Gelman (Roswell Park Cancer Institute, Buffalo, N.Y.) and maintained in McCoy's 5A medium supplemented with 2% fetal bovine serum and penicillin-streptomycin. SYF/c-Src527F cell line was also obtained from Dr. Irwin Gelman and maintained in Dulbecco's modified Eagle's medium (DMEM) supplemented with 2% bovine serum and penicillin-streptomycin. Both cell lines were incubated in an atmosphere containing 5% CO2 at 37° C.
(§20) Cell proliferation assay (MTT assay)-HT-29 (7,000 cells) and SYF/c-Src527F (4,000 cells) cells were plated in 120 μl of culture medium per well of 96-well plate. Cells were incubated overnight before drug treatment. Test compounds were diluted in culture medium in a separate 96-well plate to yield 10× concentrations of test dose (50 nM, 500 nM, 5 μM, 50 μM, and 500 μM). 13.3 μl of the 10× compound was added to each well of cells to achieve the final test concentrations (5 nM, 50 nM, 500 nM, 5 μM and 50 μM). After 3 days incubation, 10 μl of MTT (Thiazolyl Blue Tetrazolium Bromide, 5 mg/ml in PBS) was added to each well and incubate for 3 hours at 37° C. After removal of culture medium, 100 μl of isopropanol containing 40 mM HCl was added to each well and incubate for 10 minutes on a shaker to dissolve the MTT formazan. Optical density (OD) at 570 nm was then measured using microplate reader and cell growth inhibition (percentage of growth) by each concentration of drug was calculated as: % growth=100×[(T−T0)/(C−T0)] (T: OD of the test well exposure to test drug; C: OD of the control well without drug treatment; T0: OD at time zero). Growth inhibition curves and GI50 were determined using GraphPad Prism 5 statistical software.

[1] = test system: human colon tumor cell line HT-29; experiment: Cell proliferation assay (MTT assay), GI50; details: HT-29, 72 h, 3 days incubation, read-out: GI50 HT29
Protocol: as §18, §19, §20

| Compound | JAK3 pStat5-PE Signal (JAK3) | JAK3 pStat5-PE Signal/Background (JAK3) | JAK1 pStat6-Alexa647 Signal (JAK1) | JAK1 pStat6-Alexa647 Signal/Background (JAK1) | GI50 (SYF/c-Src527F cell line) [µM] | GI50 [1] [µM] |
| --- | --- | --- | --- | --- | --- | --- |
| O=C(Cc1ccc(-c2ccccc2)cc1)NCc1cccc(F)c1 [Control A] | 4.12 | 1.41 | 23.79 | 5.69 | – | – |
| O=S(=O)(CCc1ccccc1)Cc1ccc(-c2ccccc2)cc1 [Compound 139] | 4.41 | 1.51 | 25.08 | 6.00 | 2.2 | 2.9 |
| O=C(Cc1ccccc1)NCc1ccc(-c2ccccc2)cn1 [Compound 140] | 3.02 | 1.14 | 13.76 | 3.62 | 11.8 | 2.1 |
| c1ccc(CNCCc2ccc(-c3ccccc3)cc2)cc1 [Compound 127] | 3.38 | 1.15 | 18.81 | 4.50 | 1.4 | 3.3 |
| COc1cc2ncnc(Nc3ccc(O)c(Br)c3)c2cc1OC [WHI-P154] | 1.63 | 0.56 | 14.54 | 3.48 | – | – |
| O=C(Cc1ccc(-c2ccc(OCCN3CCOCC3)cc2)cn1)NCc1ccccc1 [drawing 587] | – | – | – | – | 0.023 | 0.026 |
| O=C(NCc1ccccc1)Nc1ccc(-c2ccccc2)cn1 [Compound 129] | 4.15 | 1.42 | 23.06 | 5.51 | 24.7 | 5.4 |
| c1ccc(CCSCc2ccc(-c3ccccc3)cc2)cc1 [Compound 135] | 3.48 | 1.19 | 17.15 | 4.10 | 18.6 | 9.7 |
| O=C(Cc1ccc(-c2ccc(OCCN3CCOCC3)cc2)cn1)NCc1ccccc1 [Control B] | 3.42 | 1.17 | 19.03 | 4.55 | – | – |
| O=C(NCCc1ccc(-c2ccccc2)cc1)c1ccccc1 [Compound 126] | 5.34 | 1.82 | 30.85 | 7.38 | 3.1 | 2.8 |
| COc1cc2ncnc(Nc3ccc(O)cc3)c2cc1OC [WHI-P131] | 3.19 | 1.09 | 33.80 | 8.09 | – | – |
| O=C(Cc1ccc(-c2ccccc2)cc1)NCc1cccc(F)c1 [drawing 586] | – | – | – | – | 0.46 | 0.27 |
| O=S(=O)(Cc1ccc(-c2ccccc2)cc1)NCc1ccccc1 [Compound 138] | 4.10 | 1.40 | 28.65 | 6.85 | 1.4 | 13.9 |
| O=S(=O)(Cc1ccc(Br)cc1)NCc1ccc(-c2ccccc2)cc1 [Compound 134] | 3.66 | 1.25 | 21.47 | 5.14 | 4.9 | 5.6 |
| O=C(Cc1ccccc1)NCc1ccc(-c2ccccc2)cc1 [Compound 125] | 4.58 | 1.56 | 29.48 | 7.05 | 0.75 | 0.46 |
| [O-][S+](CCc1ccccc1)Cc1ccc(-c2ccccc2)cc1 (centres unmarked) [Compound 137] | 3.71 | 1.27 | 22.03 | 5.27 | 0.97 | 1.8 |
| O=C(Cc1ccccc1)NCc1ccc(OCc2ccccc2)cc1 [Compound 163] | 3.24 | 1.22 | 15.35 | 4.04 | 275 | 62.9 |
| O=C(NCc1ccccc1)Oc1ccc(-c2ccccc2)cc1 [Compound 130] | 5.21 | 1.78 | 31.77 | 7.60 | 7.6 | 27.1 |
| O=C(CCc1ccccc1)Cc1ccc(-c2ccccc2)cn1 [Compound 150] | 3.36 | 1.27 | 14.48 | 3.81 | 20.8 | 5.7 |

— patent US8124605B2, “Compositions and methods for modulating a kinase cascade” (Kinex Pharmaceuticals, LLC, priority 2007, dated 2012)
